Test results reported in the supplement of paper PMC10307832.

Columns and labels:
Assay in all cases: relative viability (nuclei count vs DMSO), 5 days (fraction); higher = more cells survive
RU-SKI 43 + AZD7762 = compound: CC[C@@H](C)CNCC(=O)N1CCC2=C([C@@H]1COC3=CC=CC(=C3)C)C=CS2 [RU-SKI 43] + NC(=O)Nc1cc(-c2cccc(F)c2)sc1C(=O)N[C@H]1CCCNC1 [AZD7762] (partner 0.2 µM)
Outline: (§1)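 Lung cancer cell lines were seeded in 1536-well plates and dosed by pin tool the next day, with either a single drug or a fixed anchor-drug dose combined with five library-drug doses (not always all listed) spaced in √10 steps. Five days later, one step fixed the cells and stained their nuclei (final 0.05% Triton X-100, 1% formaldehyde, 1 ug/ml Hoechst), and nuclei were counted on 4× images. Relative viability is the nuclei count in treated wells divided by the count in vehicle wells, and each value is the median of duplicate plates.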

MK-8033 + Trametinib = compound: Cn1cc(-c2cnc3ccc4ccc(CS(=O)(=O)NCc5ccccn5)cc4c(=O)c3c2)cn1 [MK-8033] + CC(=O)Nc1cccc(-n2c(=O)n(C3CC3)c(=O)c3c(Nc4ccc(I)cc4F)n(C)c(=O)c(C)c32)c1 [Trametinib] (partner 0.02 µM)
Outline: as §1

RU-SKI 43 + Pemetrexed = compound: CC[C@@H](C)CNCC(=O)N1CCC2=C([C@@H]1COC3=CC=CC(=C3)C)C=CS2 [RU-SKI 43] + Nc1nc2[nH]cc(CCc3ccc(C(=O)N[C@@H](CCC(=O)O)C(=O)O)cc3)c2c(=O)[nH]1 [Pemetrexed] (partner 0.2 µM)
Outline: as §1

RU-SKI 43 + Decitabine = compound: CC[C@@H](C)CNCC(=O)N1CCC2=C([C@@H]1COC3=CC=CC(=C3)C)C=CS2 [RU-SKI 43] + Nc1ncn([C@H]2C[C@H](O)[C@@H](CO)O2)c(=O)n1 [Decitabine] (partner 2 µM)
Outline: as §1

Cell Line | relative viability (RU-SKI 43 + AZD7762; first compound 0.1 µM) | relative viability (RU-SKI 43 + AZD7762; first compound 0.3162 µM) | relative viability (RU-SKI 43 + AZD7762; first compound 1 µM) | relative viability (RU-SKI 43 + AZD7762; first compound 3.162 µM) | relative viability (RU-SKI 43 + AZD7762; first compound 10 µM) | relative viability (MK-8033 + Trametinib; first compound 0.02 µM) | relative viability (MK-8033 + Trametinib; first compound 0.06325 µM) | relative viability (MK-8033 + Trametinib; first compound 0.2 µM) | relative viability (MK-8033 + Trametinib; first compound 0.6325 µM) | relative viability (MK-8033 + Trametinib; first compound 2 µM) | relative viability (RU-SKI 43 + Pemetrexed; first compound 0.1 µM) | relative viability (RU-SKI 43 + Pemetrexed; first compound 0.3162 µM) | relative viability (RU-SKI 43 + Pemetrexed; first compound 1 µM) | relative viability (RU-SKI 43 + Pemetrexed; first compound 3.162 µM) | relative viability (RU-SKI 43 + Pemetrexed; first compound 10 µM) | relative viability (RU-SKI 43 + Decitabine; first compound 0.1 µM) | relative viability (RU-SKI 43 + Decitabine; first compound 0.3162 µM) | relative viability (RU-SKI 43 + Decitabine; first compound 1 µM) | relative viability (RU-SKI 43 + Decitabine; first compound 3.162 µM) | relative viability (RU-SKI 43 + Decitabine; first compound 10 µM)
201T | 0.628 | 0.603 | 0.602 | 0.531 | 0.567 | 0.778 | 0.76 | 0.709 | 0.782 | 0.73 | 0.374 | 0.311 | 0.307 | 0.358 | 0.321 | 0.838 | 0.824 | 0.854 | 0.856 | 0.831
A549 | – | – | – | – | – | – | – | – | – | – | – | – | – | – | – | 0.256 | 0.263 | 0.25 | 0.307 | 0.234
A-427 | 0.726 | 0.761 | 0.765 | 0.851 | 0.674 | 0.775 | 0.719 | 0.696 | 0.752 | 0.781 | 1.02 | 0.948 | 1.15 | 1.04 | 0.995 | 0.555 | 0.477 | 0.568 | 0.551 | 0.538
ABC-1 | 0.894 | 0.867 | 1.2 | 0.727 | 0.957 | – | – | – | – | – | – | – | – | – | – | 1.01 | 1.14 | 1.2 | 1.07 | 1.17
BEN | 0.801 | 0.652 | 0.786 | 0.642 | 0.743 | 1.07 | 0.943 | 0.964 | 1.03 | 0.991 | 0.941 | 0.682 | 0.997 | 0.665 | 0.825 | 0.806 | 0.692 | 0.812 | 0.729 | 0.78
CAL-12T | 0.644 | 0.735 | 0.698 | 0.714 | 0.648 | 0.347 | 0.297 | 0.31 | 0.413 | 0.329 | 1.16 | 1.36 | 1.39 | 1.2 | 1.22 | – | – | – | – | –
COR-L23 | – | – | – | – | – | 0.607 | 0.576 | 0.602 | 0.572 | 0.523 | 0.203 | 0.202 | 0.205 | 0.22 | 0.189 | 0.428 | 0.369 | 0.448 | 0.514 | 0.433
COR-L 105 | – | – | – | – | – | 0.514 | 0.392 | 0.427 | 0.434 | 0.356 | 1.11 | 1.12 | 1.17 | 1.04 | 1.03 | 0.625 | 0.674 | 0.703 | 0.629 | 0.625
ChaGo-K-1 | 0.877 | 1.04 | 0.836 | 0.921 | 0.801 | 0.877 | 0.717 | 0.802 | 0.886 | 0.729 | 0.268 | 0.299 | 0.249 | 0.284 | 0.265 | 0.543 | 0.559 | 0.518 | 0.551 | 0.501
EKVX | 0.605 | 0.714 | 0.874 | 0.707 | 0.658 | 0.334 | 0.297 | 0.295 | 0.367 | 0.344 | 0.419 | 0.344 | 0.417 | 0.407 | 0.393 | 0.303 | 0.254 | 0.146 | 0.342 | 0.365
